Results: patent US10689344B2, “Biphenylamide derivative Hsp90 inhibitors” (University of Kansas, priority 2013, dated 2020)
Blank lines part the entries; values can stand above or below the compound they belong to.

Legend:
[1] = tested on: JMAR (Head and Neck Cancer); assay: Activity of compounds in cancer cell lines, JMAR; assay type: cell-based; conditions: Table 12, JMAR (Head and Neck Cancer)
Description: Biological activity of these compounds of the present disclosure may be measured using a variety of different methods and techniques. In some embodiments of the present disclosure, the activity is measuring using anti-proliferation assays to determine an IC50 value for particular cell lines such as JMAR and MCF-7. Additionally, in other embodiments, the activity of the instant compounds is measuring using Western blot and measuring protein expression in a variety of different downstream poteins regulated by Hsp90.
Cells were maintained in a 1:1 mixture of Advanced DMEM/F12 (Gibco) supplemented with non-essential amino acids, L-glutamine (2 mM), streptomycin (500 μg/mL), penicillin (100 units/mL), and 10% FBS. Cells were grown to confluence in a humidified atmosphere (37° C., 5% CO2), seeded (2000/well, 100 μL) in 96-well plates, and allowed to attach overnight. Compound at varying concentrations in DMSO (1% DMSO final concentration) was added, and cells were returned to the incubator for 72 h. At 72 h, the number of viable cells was determined using an MTS/PMS cell proliferation kit (Promega) per the manufacturer's instructions. Cells incubated in 1% DMSO were used at 100% proliferation, and values were adjusted accordingly. IC50 values were calculated from separate experiments performed in triplicate using GraphPad Prism.

[2] = tested on: Hsp90-dependent client proteins (Her2, Raf, Akt) in MCF-7 cells; assay: Western blot analyses of Hsp90-dependent client proteins from MCF-7 cell lysate; assay type: cell-based; conditions: for non-Hsp90-dependent protein actin (western blot): FIG. 1; for Hsp90-dependent client proteins Her2, Raf, and Akt (western blot): FIG. 1, at the same concentration needed to manifest anti-proliferative activity (H 5-fold, L 1/2)
Protocol: (§1) FIG. 1—Western blot analyses of Hsp90-dependent client proteins from MCF-7 breast cancer cell lysate upon treatment with biphenyl derivatives. H represents a concentration equal to 5-fold of the anti-proliferative activity. L represents a concentration ½ of the anti-proliferative activity. Geldanamycin (G, 0.5 μM) and dimethylsulfoxide (D, 100%) were employed as positive and negative controls.
as §1, with “FIGS. 2A & 2B—Western” for “FIG. 1—Western”, “derivatives. Concentrations (in μM) were indicated above each line.” for “derivatives.”, “equal to 0.5-fold” for “½”, “(GDA,” for “(G,”, “(DMSO,” for “(D,”
FIG. 3—Western blot analyses of Hsp90-dependent client proteins from MCF-7 breast cancer cell lysate upon treatment with compound 6l. Concentrations (in μM) were indicated above each line, and geldanamycin (GDA, 0.5 μM) and dimethylsulfoxide (DMSO) were employed as positive and negative controls.
MCF-7 cells were cultured as described above and treated with various concentrations of drug, GDA in DMSO (1% DMSO final concentration), or vehicle (DMSO) for 24 h. Cells were harvested in cold PBS and lysed in RIPA lysis buffer containing 1 mM PMSF, 2 mM sodium orthovanadate, and protease inhibitors on ice for 1 h. Lysates were clarified at 14000 g for 10 min at 4° C. Protein concentrations were determined using the Pierce BCA protein assay kit per the manufacturer's instructions. Equal amounts of protein (20 μg) were electrophoresed under reducing conditions, transferred to a nitrocellulose membrane, and immunoblotted with the corresponding specific antibodies. Membranes were incubated with an appropriate horseradish peroxidase-labeled secondary antibody, developed with a chemiluminescent substrate, and visualized.

[3] = tested on: SKBr3 (estrogen receptor negative, HER2 over-expressing breast cancer cells); assay: Anti-proliferation assay (MTS/PMS, 72 h), SKBr3; assay type: cell-based; conditions: Homo sapiens
Summary of the method: (§2)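 Cells seeded at 2000/well, attached overnight, then exposed to compound at varying concentrations (1% DMSO final) for 72 h at 37° C, 5% CO2. Viability by MTS/PMS, normalised to 1% DMSO controls as 100% proliferation; IC50 from separate triplicate experiments.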

[4] = tested on: MCF-7 (estrogen receptor positive breast cancer cells); assay: Anti-proliferation assay (MTS/PMS, 72 h), MCF-7; assay type: cell-based; conditions: Homo sapiens
Summary of the method: as §2

SKBr3 cells = conditions: cited from earlier work
[5] = SK-BR-3, Table 2, para-meta biphenyl core with substituted benzylamide
[6] = MCF7, Table 2, para-meta biphenyl core with substituted benzylamide
[7] = MCF-7 cells, FIG. 1, all concentrations tested
[8] = SK-BR-3, Table 1, ortho, meta and para biphenyl cores
[9] = SK-BR-3, Table 9, para-meta biphenyl core with prenylated benzylamide
[10] = MCF7, Table 1, ortho, meta and para biphenyl cores
[11] = MCF7, Table 9, para-meta biphenyl core with prenylated benzylamide
[12] = SK-BR-3, Table 3, substituted para-para biphenyl core
[13] = SK-BR-3, Table 5, modified linkers in para-para biphenyl core
[14] = SK-BR-3, Table 8, para-para biphenyl core with substituted biphenylamide group
[15] = MCF7, Table 3, substituted para-para biphenyl core
[16] = MCF7, Table 5, modified linkers in para-para biphenyl core
[17] = MCF7, Table 8, para-para biphenyl core with substituted biphenylamide group
[18] = SK-BR-3, Table 6, para-para biphenyl core with substituted benzylamide
[19] = MCF7, Table 6, para-para biphenyl core with substituted benzylamide

IC50 [1]: 0.11 µM
SMILES: CN1CCC(Oc2ccc(-c3cccc(NC(=O)c4ccc(Br)cc4)c3)cc2)CC1 [drawing 161]

IC50 [3, 5]: 1.94 ± 0.11 µM | IC50 [4, 6]: 0.88 ± 0.07 µM
SMILES: CN1CCC(Oc2ccc(-c3cccc(NC(=O)c4ccc(Br)cc4)c3)cc2)CC1 [Compound 6l, 4-Bromo-N-(4′-((1-methylpiperidin-4-yl)oxy)-[1,1′-biphenyl]-3-yl)benzamide]
Hsp90-dependent client proteins Her2, Raf-1 and p-Akt (western blot) ([2]; MCF-7 cell lysates, FIG. 3): degraded in a concentration dependent manner | Hsp90 levels (western blot) ([2]; MCF-7 cell lysates, FIG. 3): remained unchanged | actin levels (western blot) ([2]; MCF-7 cell lysates, FIG. 3): remained constant

IC50 [3, 8]: 3.65 ± 0.14 µM | IC50 [3, 9]: 3.47 ± 0.47 µM | IC50 [4, 10]: 1.25 ± 0.02 µM | IC50 [4, 11]: 2.71 ± 0.4 µM
SMILES: COc1cccc(-c2cc(C(=O)Nc3cccc(-c4ccc(OC5CCN(C)CC5)cc4)c3)ccc2OC)c1 [Compound 6a, 3′,6-dimethoxy-N-(4′-((1-methylpiperidin-4-yl)oxy)-[1,1′-biphenyl]-3-yl)-[1,1′-biphenyl]-3-carboxamide]
Hsp90 client proteins Her2 and Raf-1 (western blot) ([2]; MCF-7 cell lysates, FIG. 2A, concentrations that mirror anti-proliferative IC50 values): degraded | non-Hsp90-dependent protein actin (western blot) ([2]; MCF-7 cells): not affected | Hsp90 levels (western blot) [2, 7]: remained constant | Hsp90-dependent client proteins Her2, Raf, and Akt (western blot) ([2]; MCF-7 cells): degradation in a concentration-dependent manner

IC50 [3, 8]: 0.47 ± 0.06 µM | IC50 [3, 12]: 0.47 ± 0.06 µM | IC50 [3, 13]: 0.47 ± 0.06 µM | IC50 ([3]; SK-BR-3, Table 7, para-para biphenyl core with modified ether groups): 0.47 ± 0.06 µM | IC50 [3, 14]: 0.47 ± 0.06 µM | IC50 [4, 10]: 0.71 ± 0.02 µM | IC50 [4, 15]: 0.71 ± 0.02 µM | IC50 [4, 16]: 0.71 ± 0.02 µM | IC50 ([4]; MCF7, Table 7, para-para biphenyl core with modified ether groups): 0.71 ± 0.02 µM | IC50 [4, 17]: 0.71 ± 0.02 µM
SMILES: COc1cccc(-c2cc(C(=O)Nc3ccc(-c4ccc(OC5CCN(C)CC5)cc4)cc3)ccc2OC)c1 [Compound 9a, 3′,6-dimethoxy-N-(4′-((1-methylpiperidin-4-yl)oxy)-[1,1′-biphenyl]-4-yl)-[1,1′-biphenyl]-3-carboxamide]
non-Hsp90-dependent protein actin (western blot) ([2]; MCF-7 cells): not affected | Hsp90 levels (western blot) [2, 7]: remained constant | Hsp90-dependent client proteins Her2, Raf, and Akt (western blot) ([2]; MCF-7 cells): degradation in a concentration-dependent manner

IC50 [3, 9]: 2.94 ± 0.11 µM | IC50 [4, 11]: 2.21 ± 0.06 µM
SMILES: CC(C)=CCc1cc(C(=O)Nc2cccc(-c3ccc(OC4CCN(C)CC4)cc3)c2)ccc1O [Compound 3a]
Her2, Raf-1 and p-Akt (western blot, concentration-dependent analysis) ([2]; MCF-7 cell lysates, FIG. 2B): degradation of Her2, Raf-1 and p-Akt

SMILES: CO[C@@H]1[C@@H](OC(N)=O)[C@@H](O)[C@H](Oc2ccc3c(O)c(NC(=O)c4ccc(O)c(CC=C(C)C)c4)c(=O)oc3c2C)OC1(C)C [Novobiocin]
efficiency as Hsp90 C-terminal inhibitor (SKBr3 cells): ~700 µM

IC50 [1]: 0.0097 µM
SMILES: COc1ccc(C(=O)Nc2ccc(Nc3ccc(OC4CCN(C)CC4)cc3)cc2)cc1 [drawing 162]

IC50 [3, 18]: 0.31 ± 0.09 µM | IC50 [4, 19]: 0.58 ± 0.01 µM
SMILES: CN1CCC(Oc2ccc(-c3ccc(NC(=O)c4ccc(I)cc4)cc3)cc2)CC1 [Compound 41d, 4-iodo-N-(4′-((1-methylpiperidin-4-yl)oxy)-[1,1′-biphenyl]-4-yl)benzamide]

IC50 [3, 13]: 0.91 ± 0.08 µM | IC50 [4, 16]: 1.26 ± 0.13 µM
SMILES: COc1cccc(-c2cc(NC(=O)Nc3ccc(-c4ccc(OC5CCN(C)CC5)cc4)cc3)ccc2OC)c1 [Compound 52, 1-(3′,6-dimethoxy-[1,1′-biphenyl]-3-yl)-3-(4′-((1-methylpiperidin-4-yl)oxy)-[1,1′-biphenyl]-4-yl)urea]

IC50 [3, 14]: 0.63 ± 0.04 µM | IC50 [4, 17]: 0.79 ± 0.13 µM
SMILES: COc1ccc(-c2cc(C(=O)Nc3ccc(-c4ccc(OC5CCN(C)CC5)cc4)cc3)ccc2OC)cc1 [Compound 49c, 4′,6-dimethoxy-N-(4′-((1-methylpiperidin-4-yl)oxy)-[1,1′-biphenyl]-4-yl)-[1,1′-biphenyl]-3-carboxamide]

IC50 [3, 14]: 0.14 ± 0.01 µM | IC50 [4, 17]: 0.64 ± 0.08 µM
SMILES: COc1ccc(C(=O)Nc2ccc(-c3ccc(OC4CCN(C)CC4)cc3)cc2)cc1-c1ccc(OC(C)=O)cc1 [Compound 49e, 2′-methoxy-5′-((4′-((1-methylpiperidin-4-yl)oxy)-[1,1′-biphenyl]-4-yl)carbamoyl)-[1,1′-biphenyl]-4-yl acetate]

IC50 [3, 8]: 1.25 ± 0.04 µM | IC50 [4, 10]: 0.77 ± 0.08 µM
SMILES: CN1CCC(Oc2ccc(-c3cccc(NC(=O)C45CC6CC(CC(C6)C4)C5)c3)cc2)CC1 [Compound 61a, N-(4′-((1-methylpiperidin-4-yl)oxy)-[1,1′-biphenyl]-3-yl)adamantane-1-carboxamide]

IC50 ([3]; SK-BR-3, Table 11, heteroatom linked biphenyl core): 2.17 ± 0.03 µM | IC50 ([4]; MCF7, Table 11, heteroatom linked biphenyl core): 3.37 ± 1.63 µM
SMILES: CN1CCC(Oc2ccc(Nc3ccc(NC(=O)c4ccc(C(C)(C)C)cc4)cc3)cc2)CC1

IC50 [3, 14]: 1.06 ± 0.05 µM | IC50 [4, 17]: 0.82 ± 0.13 µM
SMILES: COc1ccc(C(=O)Nc2ccc(-c3ccc(OC4CCN(C)CC4)cc3)cc2)cc1-c1ccc(Cl)cc1 [Compound 49g, 4′-chloro-6-methoxy-N-(4′-((1-methylpiperidin-4-yl)oxy)-[1,1′-biphenyl]-4-yl)-[1,1′-biphenyl]-3-carboxamide]

IC50 [3, 12]: 2.23 ± 0.49 µM | IC50 [4, 15]: 5.95 ± 1.22 µM
SMILES: COc1cccc(-c2cc(C(=O)Nc3ccc(-c4ccc(OC5CCN(C)CC5)c(N)c4)cc3)ccc2OC)c1 [Compound 38a, N-(3′-amino-4′-((1-methylpiperidin-4-yl)oxy)-[1,1′-biphenyl]-4-yl)-3′,6-dimethoxy-[1,1′-biphenyl]-3-carboxamide]

IC50 [3, 12]: 1.07 µM | IC50 [4, 15]: 1.3 ± 0.12 µM
SMILES: COc1cccc(-c2cc(C(=O)Nc3ccc(-c4ccc(OC5CCN(C)CC5)cc4[N+](=O)[O-])cc3)ccc2OC)c1 [Compound 34b, 3′,6-dimethoxy-N-(4′-((1-methylpiperidin-4-yl)oxy)-2′-nitro-[11′-biphenyl]-4-yl)-[1,1′-biphenyl]-3-carboxamide]

IC50 [3, 18]: 1.2 ± 0.08 µM | IC50 [4, 19]: 1.6 ± 0.16 µM
SMILES: CN1CCC(Oc2ccc(-c3ccc(NC(=O)c4ccc(Cl)c(Cl)c4)cc3)cc2)CC1 [Compound 41n, 3,4-dichloro-N-(4′-((1-methylpiperidin-4-yl)oxy)-[1,1′-biphenyl]-4-yl)benzamide]

IC50 [3, 5]: 4.29 ± 0.43 µM | IC50 [4, 6]: 2.11 ± 0.42 µM
SMILES: CN1CCC(Oc2ccc(-c3cccc(NC(=O)c4cccc(Cl)c4)c3)cc2)CC1 [Compound 6i, 3-Chloro-N-(4′-((1-methylpiperidin-4-yl)oxy)-[1,1′-biphenyl]-3-yl)benzamide]

IC50 [3, 18]: 4.59 ± 0.06 µM | IC50 [4, 19]: 4.44 ± 0.6 µM
SMILES: CN1CCC(Oc2ccc(-c3ccc(NC(=O)c4ccc(-c5ccccc5)cc4)cc3)cc2)CC1 [Compound 41s, N-(4′-((1-methylpiperidin-4-yl)oxy)-[1,1′-biphenyl]-4-yl)-[1,1′-biphenyl]-4-carboxamide]

IC50 [3, 8]: 1.62 ± 0.07 µM | IC50 [4, 10]: 2 ± 0.07 µM
SMILES: COc1cccc(-c2cc(C(=O)Nc3cccc(-c4cccc(OC5CCN(C)CC5)c4)c3)ccc2OC)c1 [Compound 61d, 3′,6-dimethoxy-N-(3′-((1-methylpiperidin-4-yl)oxy)-[1,1′-biphenyl]-3-yl)-[1,1′-biphenyl]-3-carboxamide]

IC50 [3, 13]: 1.64 ± 0.79 µM | IC50 [4, 16]: 1.22 ± 0.13 µM
SMILES: COc1cccc(-c2cc(NC(=O)c3ccc(-c4ccc(OC5CCN(C)CC5)cc4)cc3)ccc2OC)c1 [Compound 60]
